Measured values as given in patent US11123362B2, “Compositions and methods to affect skin irritation” (ALUMEND, LLC, priority 2015, dated 2021).

Assays:
[1] = tested on: IL-1α secretion, human epidermal equivalents (EPI-200); assay: IL-1α levels 24 hr post-exposure, retinoids, ELISA (Example 2); format: cell-based; details: 5% SDS, Positive Control
Protocol: Retinoids were dissolved in one of two vehicles: […] […] A Bio-Tek microplate reader and KC4 software were used for sample analysis.

[2] = tested on: IL-1α secretion, human epidermal equivalents (EPI-200); assay: IL-1α secretion upon chymotrypsin exposure (Example 5, diaper rash irritation); format: cell-based
Protocol: (§1) Modified chitosan (1%) alone was also included.
(§2) IL-1α secretion was analyzed using the Human IL-1α ELISA Duo Set (R&D Systems, cat# DY200, Lot 1353857). A Bio-Tek microplate reader and KC4 software were used for sample analysis.
(§3) The method is described in Example 1. Test articles included Chymotrypsin (0.005, 0.01 and 0.02%), with and without modified chitosan (1%). Chymotrypsin is the major fecal irritant enzyme that initiates diaper rash.

[3] = tested on: three-dimensional human epidermal equivalents (EPI-200); assay: In Vitro Skin Irritation Test, MTT tissue viability, retinoids (Example 2); format: cell-based; details: positive control irritant (5% SDS)
Protocol: Retinoids were dissolved in one of two vehicles: V1 (50% ethanol, 20% glycerin, 0.1% BHT, in PBS) or V2 (50% ethanol, 0.1% BHT, in PBS).

[4] = tested on: three-dimensional human epidermal equivalents (EPI-200); assay: In Vitro Skin Irritation Test, MTT tissue viability upon SDS exposure (Example 1); details: for mean of viability [%]: 60 minute exposure, MTT after 42 hr
Protocol: An In Vitro Skin Irritation Test was performed according to OCED guidelines. Irritant materials are identified by their ability to decrease cell viability below a defined threshold level of 50%. Moreover, if the cytotoxic effect is absent or weak, a quantifiable amount of inflammatory mediators (e.g. IL-1α) is released by the epidermis and may be used in a tiered approach to increase the sensitivity of the test.
Test materials (30 μl) were topically applied onto three-dimensional human epidermal equivalents (EPI-200 from MatTek, Ashland, Mass.), n=3 tissues per treatment group. Test materials included a positive control irritant (5% sodium dodecyl sulfate, SDS), and a negative control (Phosphate Buffered Saline, PBS), and aqueous SDS solutions of 0.2, 0.4 and 0.6%, with or without the addition of modified chitosan (1%). Modified chitosan (1%) alone was also included.
After a 60 minute exposure, the tissues were rinsed with PBS and were transferred to fresh medium. After 24 hours, media was collected for IL-1α analysis and tissues were transferred to fresh media for an additional 18 hr to allow the toxic effect of irritant chemicals to develop. After the 42 hr post-exposure equilibration, media was again collected and tissue viability was determined using an MTT assay.

[5] = tested on: IL-1α secretion, human epidermal equivalents (EPI-200); assay: IL-1α secretion upon SDS exposure, ELISA (Example 1); format: cell-based; details: for IL-1α secretion, Avg: media at 24 hours
Protocol: as §2

[6] = tested on: three-dimensional human epidermal equivalents (EPI-200); assay: Cell death upon chymotrypsin exposure (Example 5); format: cell-based; details: chymotrypsin 0.005-0.02%, one hour exposure
Description: as §1, §3

[7] = tested on: Epidermal equivalents (EPI-200); assay: Visual observation of tissues after four days of daily retinol treatment (Example 3); format: cell-based; details: 1% retinol in vehicle, daily for four days
Protocol: Epidermal equivalents (EPI-200 from MatTek, Ashland, Mass.) were topically treated daily, for four days, with 30 μl of each test article, n=3 tissues per treatment group. Test articles were removed from the apical surface of the tissue daily by washing with PBS prior to reapplication of test article. Tissues were fed daily with 0.9 mL EPI-100-NMM. Tissues remained untreated, or treated with a vehicle (45% ethanol, 0.1% BHT, in PBS), without and with increasing concentrations of retinol (0.01-1%), with or without the addition of the modified chitosan (1%).

[8] = tested on: IL-1α secretion, epidermal equivalents (EPI-200); assay: IL-1α levels at 96 hr, daily retinol treatment, ELISA (Example 4); format: cell-based, human
Protocol: Epidermal equivalents (EPI-200 from MatTek, Ashland, Mass.) were topically treated daily, for four days, with 30 μl of each test article, n=3 tissues per treatment group. n=3 tissues were left untreated. Test articles were removed from the apical surface of the tissue daily by washing with PBS prior to reapplication of test article. […] Media was collected at 96 hour post treatment and IL-1α concentration was analyzed using the Human IL-1α ELISA Duo Set (R&D Systems, cat# DY200, Lot 1353857). A Bio-Tek microplate reader and KC4 software were used for sample analysis.

[9] = Untreated + Chymotrypsin (0.005%)
[10] = Untreated + Chymotrypsin (0.01%)
[11] = Untreated + Chymotrypsin (0.02%)

CCCCCCCCCCCCOS(=O)(=O)[O-].[Na+] [SDS, sodium dodecyl sulfate]
IL-1α levels 24 hr post-exposure, AVG [1]: >524.6
IL-1α secretion, AVG ([2]; Positive Control (PC, 5% SDS)): 394.114
IL-1α secretion, tissue 1 ([2]; Positive Control (PC, 5% SDS)): 459.595
IL-1α secretion, tissue 2 ([2]; Positive Control (PC, 5% SDS)): 384.839
IL-1α secretion, tissue 3 ([2]; Positive Control (PC, 5% SDS)): 337.908
viability [3]: less than 10%
mean of viability [%] ([4]; 0.2% SDS): 110.0%
mean of viability [%] ([4]; 0.4% SDS): 106.3%
tissues dead ([4]; 0.6% SDS): ~90%
mean of viability [%] ([4]; 0.6% SDS): 13.8%
mean of viability [%] ([4]; 5% SDS (PC)): 11.1%
IL-1α secretion, Avg ([5]; 0.2% SDS): 151.98
IL-1α secretion, Avg ([5]; 0.4% SDS): 334.95
IL-1α secretion, Avg ([5]; 0.6% SDS): 524.61
IL-1α secretion, Avg ([5]; PC (5% SDS)): 425.23
IL-1α secretion ([5]; SDS exposure 0.2-0.6%): dose-dependent increase in IL-1α secretion

Chymotrypsin
cell death [6]: did not induce cell death
IL-1α secretion, AVG [2, 9]: 65.279
IL-1α secretion, tissue 1 [2, 9]: 47.295
IL-1α secretion, tissue 2 [2, 9]: 74.241
IL-1α secretion, tissue 3 [2, 9]: 74.302
IL-1α secretion, AVG [2, 10]: 66.405
IL-1α secretion, tissue 1 [2, 10]: 58.421
IL-1α secretion, tissue 2 [2, 10]: 53.293
IL-1α secretion, tissue 3 [2, 10]: 87.502
IL-1α secretion, AVG [2, 11]: 166.821
IL-1α secretion, tissue 1 [2, 11]: 67.307
IL-1α secretion, tissue 2 [2, 11]: 353.378
IL-1α secretion, tissue 3 [2, 11]: 79.779
IL-1α secretion ([2]; chymotrypsin exposure 0.005-0.02%): dose-dependent increase in IL-1α secretion

CC1=C(/C=C/C(C)=C/C=C/C(C)=C/CO)C(C)(C)CCC1 [retinol]
visual observations at 96 hour post treatment [7]: partially disintegrated
IL-1α levels at 96 hr post-exposure, AVG ([8]; Vehicle + retinol (0.01%)): 104.90
IL-1α levels at 96 hr post-exposure, Tissue 1 ([8]; Vehicle + retinol (0.01%)): 124.24
IL-1α levels at 96 hr post-exposure, Tissue 2 ([8]; Vehicle + retinol (0.01%)): 108.54
IL-1α levels at 96 hr post-exposure, Tissue 3 ([8]; Vehicle + retinol (0.01%)): 81.94
IL-1α levels at 96 hr post-exposure, AVG ([8]; Vehicle + retinol (0.1%)): 240.68
IL-1α levels at 96 hr post-exposure, Tissue 1 ([8]; Vehicle + retinol (0.1%)): 351.17
IL-1α levels at 96 hr post-exposure, Tissue 2 ([8]; Vehicle + retinol (0.1%)): 108.86
IL-1α levels at 96 hr post-exposure, Tissue 3 ([8]; Vehicle + retinol (0.1%)): 262.00
IL-1α levels at 96 hr post-exposure, AVG ([8]; Vehicle + retinol (1%)): 1020.46
IL-1α levels at 96 hr post-exposure, Tissue 1 ([8]; Vehicle + retinol (1%)): 885.52
IL-1α levels at 96 hr post-exposure, Tissue 2 ([8]; Vehicle + retinol (1%)): 1097.75
IL-1α levels at 96 hr post-exposure, Tissue 3 ([8]; Vehicle + retinol (1%)): 1078.11
skin irritation by IL-1α secretion biomarker ([8]; retinol 0.01-1% in vehicle): induces skin irritation in a dose-responsive manner
